According to patent US12291553B2, “Non-opioid anti-pain medication” (priority 2020, dated 2025):
Read-outs that look alike come from different tables or passages of the source. Residues, ends and D or L forms follow the SMILES beside them. *: point of attachment. Cbz = O=C(OCc1ccccc1)*; OtBu = CC(C)(C)O*

Legend:
[1] = biological target: T1, full length luciferase (Photinus pyralis, UniProt P08659); test: Full length luciferase counter-screen in transiently transfected HEK293 cells; assay type: cell-based
T1 construct: PW164 has no effect on full length luciferase in transiently transfected HEK293 cells; expressed in transfected cells; host or cells: HEK293
T1 sequence (P08659 whole entry, species assumed): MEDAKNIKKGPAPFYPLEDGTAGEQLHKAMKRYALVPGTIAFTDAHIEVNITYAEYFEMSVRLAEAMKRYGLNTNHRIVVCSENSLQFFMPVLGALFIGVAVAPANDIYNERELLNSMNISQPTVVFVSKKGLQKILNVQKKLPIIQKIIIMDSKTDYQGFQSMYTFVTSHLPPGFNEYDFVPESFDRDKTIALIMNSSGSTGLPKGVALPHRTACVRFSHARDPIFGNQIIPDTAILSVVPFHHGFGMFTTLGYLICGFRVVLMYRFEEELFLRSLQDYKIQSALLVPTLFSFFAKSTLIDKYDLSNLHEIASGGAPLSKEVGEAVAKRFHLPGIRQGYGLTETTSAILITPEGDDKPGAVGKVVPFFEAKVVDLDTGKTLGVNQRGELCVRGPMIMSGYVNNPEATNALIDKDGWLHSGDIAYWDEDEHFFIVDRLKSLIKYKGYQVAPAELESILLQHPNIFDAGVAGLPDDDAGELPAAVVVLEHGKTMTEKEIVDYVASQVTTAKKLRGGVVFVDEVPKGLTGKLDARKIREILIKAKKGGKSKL
From the text: (§1) FIG. 3. PW164 inhibits FGF13-1b but not FGF13-1a binding to the Nav1.6 C-tail. […] Data are normalized with respect to 0.5% DMSO (vehicle). (C) PW164 has no effect on full length luciferase in transiently transfected HEK293 cells. (D) PW164 is not toxic toward HEK293 cells using the LDH cytotoxicity assay.

[2] = tested on: capsaicin-induced mechanical hypersensitivity; test: Capsaicin-induced pain model, von Frey mechanical hypersensitivity; assay type: in vivo, mice
[3] = DMPK profile, oral and intravenous dosing; assay type: in vivo; conditions: oral 20 mg/kg, mouse
Experimental: Relevant parameters such as half-time (t1/2), maximal concentration (Cmax), area under the curve (AUC), apparent volume of distribution at steady state (Vss), clearance (CL) and bioavailability (% F) were calculated in a mouse model.

[4] = tested on: HEK293 cells; assay type: cell-based
From the text: as §1

[5] = Whole blood stability; assay type: in vitro ADME
Experimental: (§2) FIG. 12. In vitro studies of PW164 plasma and blood metabolic stability in rodent and preclinical human models. Intestinal absorption using the P-glycoprotein (P-gp) inhibition (IC50) assay as well as activity against the human cardiac ERG channel (hERG) as well as liver toxicity tests against various isoforms of the cytochrome P450 were conducted. […] This might be favorable for peripheral therapeutics with the advantage of no brain-associated side toxicity effects.

[6] = biological target: T2, FGF13-1b:Nav1.6 channel (Homo sapiens, UniProt Q9UQD0); test: Patch-clamp, steady-state inactivation in HEK-Nav1.6 cells expressing FGF13-1b; assay type: cell-based
T2 construct: expressed in transfected cells; host or cells: HEK-Nav1.6 cells
T2 sequence (Q9UQD0 whole entry): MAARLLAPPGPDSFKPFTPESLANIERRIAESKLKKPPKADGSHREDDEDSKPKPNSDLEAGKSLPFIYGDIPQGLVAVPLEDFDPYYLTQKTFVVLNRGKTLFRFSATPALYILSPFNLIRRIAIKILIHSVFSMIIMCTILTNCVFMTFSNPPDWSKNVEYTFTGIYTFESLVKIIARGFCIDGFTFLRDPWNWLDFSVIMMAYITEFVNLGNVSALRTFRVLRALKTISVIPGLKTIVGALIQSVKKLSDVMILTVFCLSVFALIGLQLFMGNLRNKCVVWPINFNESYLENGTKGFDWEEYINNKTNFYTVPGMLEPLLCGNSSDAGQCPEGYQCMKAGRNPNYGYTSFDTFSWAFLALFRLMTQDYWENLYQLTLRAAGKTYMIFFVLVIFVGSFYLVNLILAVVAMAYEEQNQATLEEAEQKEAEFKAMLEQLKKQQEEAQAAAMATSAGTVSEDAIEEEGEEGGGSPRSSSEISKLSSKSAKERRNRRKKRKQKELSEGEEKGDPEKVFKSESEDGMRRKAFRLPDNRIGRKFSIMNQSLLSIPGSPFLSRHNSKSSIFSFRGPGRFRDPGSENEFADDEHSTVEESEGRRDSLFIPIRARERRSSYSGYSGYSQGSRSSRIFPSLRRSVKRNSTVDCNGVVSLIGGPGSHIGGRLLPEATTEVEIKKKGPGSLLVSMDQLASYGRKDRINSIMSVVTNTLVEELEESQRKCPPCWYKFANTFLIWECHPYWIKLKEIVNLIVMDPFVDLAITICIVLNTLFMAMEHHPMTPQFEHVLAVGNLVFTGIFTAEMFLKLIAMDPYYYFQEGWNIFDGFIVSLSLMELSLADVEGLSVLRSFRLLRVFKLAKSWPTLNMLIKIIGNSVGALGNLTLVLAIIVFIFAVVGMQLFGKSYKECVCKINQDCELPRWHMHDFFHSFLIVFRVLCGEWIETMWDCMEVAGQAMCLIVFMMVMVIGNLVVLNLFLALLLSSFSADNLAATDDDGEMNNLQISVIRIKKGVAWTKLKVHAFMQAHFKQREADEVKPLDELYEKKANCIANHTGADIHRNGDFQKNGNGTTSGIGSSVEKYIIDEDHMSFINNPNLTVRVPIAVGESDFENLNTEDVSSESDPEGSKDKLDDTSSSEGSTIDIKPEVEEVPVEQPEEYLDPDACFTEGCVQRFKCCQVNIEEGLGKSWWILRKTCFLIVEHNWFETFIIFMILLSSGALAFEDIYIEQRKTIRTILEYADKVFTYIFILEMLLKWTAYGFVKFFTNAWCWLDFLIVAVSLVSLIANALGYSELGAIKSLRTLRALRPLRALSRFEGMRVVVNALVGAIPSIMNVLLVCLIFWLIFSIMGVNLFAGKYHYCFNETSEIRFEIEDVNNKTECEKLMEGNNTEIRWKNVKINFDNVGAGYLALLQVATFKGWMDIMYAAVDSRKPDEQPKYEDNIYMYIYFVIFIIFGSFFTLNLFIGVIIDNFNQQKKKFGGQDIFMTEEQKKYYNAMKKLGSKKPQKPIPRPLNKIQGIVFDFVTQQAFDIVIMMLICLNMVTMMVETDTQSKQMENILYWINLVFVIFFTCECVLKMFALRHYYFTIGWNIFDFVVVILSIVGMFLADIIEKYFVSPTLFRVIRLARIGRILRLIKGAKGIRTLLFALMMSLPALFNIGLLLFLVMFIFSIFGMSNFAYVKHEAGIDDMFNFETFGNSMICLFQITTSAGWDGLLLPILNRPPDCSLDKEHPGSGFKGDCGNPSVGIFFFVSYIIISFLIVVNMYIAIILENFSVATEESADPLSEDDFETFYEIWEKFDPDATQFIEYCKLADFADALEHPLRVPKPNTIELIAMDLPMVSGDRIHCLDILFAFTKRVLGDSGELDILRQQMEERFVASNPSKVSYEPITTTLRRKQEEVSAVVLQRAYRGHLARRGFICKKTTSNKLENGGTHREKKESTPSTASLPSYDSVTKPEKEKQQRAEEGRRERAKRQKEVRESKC
Experimental: FIG. 6. […] HEK-Nav1.6 cells were transiently expressing GFP, FGF13-1b-GFP or FGF13-1a-GFP in the presence of DMSO (blue, red and dark red) 50 μM PW164 (black, green, dark green) A, Normalized current as a function of voltage (voltage dependence of steady-state inactivation) with Boltzmann fitting B Bar graph represents V1/2 of steady state inactivation. C. Normalized conductance (G/Gmax) as a function of voltage (voltage dependence of activation) with Boltzmann fitting. D. Bar graph represents V1/2 of activation. Data are represented as mean±SEM; n=4-8 cells per group. **p<0.01; One-WAY ANOVA, post-hoc Bonferroni.
(§3) Based on the success of other PPI regulators targeting ion channels we used the same rationale of selecting compounds that could act as a FGF13 isoform specific blocking FGF13-1b isoform effects mimicking FGF13-1a and select PW164 for functional assays. We used patch-clamp electrophysiology and begun functional validation of the lead compound using a panel of biophysical protocols targeting Nav channels (FIG. 5, 6).

[7] = tested on: mechanical hypersensitivity at the surgical wound; test: Plantar incision model of post-operative pain; assay type: in vivo, mice; conditions: administered to the wound, 3 μL
From the text: FIG. 10. […] After plantar incision, mice develop profound mechanical hypersensitivity to LVF at the surgical wound (scheme).

[8] = biological target: human cardiac ERG channel (hERG) (Homo sapiens, UniProt Q12809); test: hERG channel activity
Sequence of human cardiac ERG channel (hERG) (Q12809 whole entry): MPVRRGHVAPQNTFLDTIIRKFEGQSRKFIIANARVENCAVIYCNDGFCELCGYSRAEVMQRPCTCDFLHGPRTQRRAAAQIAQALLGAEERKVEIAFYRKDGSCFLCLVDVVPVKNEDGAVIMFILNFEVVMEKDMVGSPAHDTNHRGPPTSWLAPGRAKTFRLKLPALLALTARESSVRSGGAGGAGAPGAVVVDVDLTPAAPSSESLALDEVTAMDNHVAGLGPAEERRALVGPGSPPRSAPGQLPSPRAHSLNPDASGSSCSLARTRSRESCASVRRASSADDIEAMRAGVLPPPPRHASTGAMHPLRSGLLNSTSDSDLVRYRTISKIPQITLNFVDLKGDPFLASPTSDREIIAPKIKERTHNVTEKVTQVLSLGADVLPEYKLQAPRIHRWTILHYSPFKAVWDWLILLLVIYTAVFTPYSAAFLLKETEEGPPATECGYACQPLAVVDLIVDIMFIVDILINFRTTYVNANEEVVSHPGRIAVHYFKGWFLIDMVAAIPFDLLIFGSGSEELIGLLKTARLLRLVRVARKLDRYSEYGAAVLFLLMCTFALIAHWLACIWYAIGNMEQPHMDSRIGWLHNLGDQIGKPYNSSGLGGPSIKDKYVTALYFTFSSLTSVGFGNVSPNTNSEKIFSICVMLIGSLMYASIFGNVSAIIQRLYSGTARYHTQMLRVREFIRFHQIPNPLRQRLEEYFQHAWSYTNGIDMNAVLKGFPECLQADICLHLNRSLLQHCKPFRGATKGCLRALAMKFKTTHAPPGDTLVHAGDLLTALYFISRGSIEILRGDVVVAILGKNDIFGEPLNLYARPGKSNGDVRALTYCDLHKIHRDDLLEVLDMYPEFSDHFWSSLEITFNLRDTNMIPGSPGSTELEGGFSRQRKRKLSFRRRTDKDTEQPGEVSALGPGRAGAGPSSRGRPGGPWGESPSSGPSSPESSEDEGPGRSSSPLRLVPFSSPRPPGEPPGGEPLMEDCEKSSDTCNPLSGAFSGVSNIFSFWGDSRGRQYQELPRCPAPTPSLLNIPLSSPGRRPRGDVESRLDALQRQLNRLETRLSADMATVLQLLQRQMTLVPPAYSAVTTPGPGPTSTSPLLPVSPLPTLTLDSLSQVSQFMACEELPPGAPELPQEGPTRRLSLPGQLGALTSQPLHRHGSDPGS
Experimental: as §2

[9] = biological target: T3, FGF13-1a:Nav1.6 (Homo sapiens, UniProt Q9UQD0); test: Split-luciferase complementation assay (LCA), FGF13-1a:Nav1.6 complex; assay type: cell-based; conditions: LCA dose response, normalized to 0.5% DMSO
T3 construct: luciferase fragment (split-luciferase half); expressed in transfected cells
T3 sequence (Q9UQD0 1763-1980 limits assumed): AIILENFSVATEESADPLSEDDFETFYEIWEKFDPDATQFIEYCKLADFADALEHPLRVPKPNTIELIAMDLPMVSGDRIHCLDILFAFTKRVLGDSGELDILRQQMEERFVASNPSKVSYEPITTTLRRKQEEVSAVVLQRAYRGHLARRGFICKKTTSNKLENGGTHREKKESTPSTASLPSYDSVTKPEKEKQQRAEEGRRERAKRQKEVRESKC
From the text: FIG. 2. In-cell reconstitution of FGF13: Nav1.6 complexes using the split-luciferase assay. A. Principle of split-luciferase assay. B. Luminescence-based complementation assay (LCA) of the FGF13-1a:Nav1.6 (solid dots) and FGF13-1b:Nav1.6 C-tail complex (open dots); control conditions are depicted in black; corresponding dark red dots refer to LCA complexes in the presence of the tyrosine kinase inhibitor MNS used as negative control. C,D. Summary bar graphs depicting assay robustness with respective Z′ score calculations for each LCA complex.
as §1

[10] = biological target: T4, Nav1.6 (Homo sapiens, UniProt Q9UQD0); test: Patch-clamp, Na+ transient currents in HEK-Nav1.6 cells; assay type: cell-based; conditions: 50 μM
T4 construct: expressed in transfected cells; host or cells: HEK-Nav1.6 cells
T4 sequence (Q9UQD0 whole entry): as the sequence (Q9UQD0 whole entry) above
Experimental: FIG. 5. […] A. Representative traces of Na+ transient currents (INa+) recorded from HEK-Nav1.6 cells transiently expressing the indicated constructs in response to depolarizing voltage steps in the presence of 50 μM PW164 or DMSO. B. Current-voltage relationship (I-V) derived from A. C. Summary bar graphs derived from A,B. Data are represented as mean±SEM; n=4-8 cells per group. *p<0.05; One-WAY ANOVA, post-hoc Bonferroni.
as §3

[11] = tested on: cytochrome P450; test: Cytochrome P450 isoform tests; assay type: in vitro ADME; conditions: various isoforms
Experimental: as §2

[12] = biological target: T5, FGF13-1b:Nav1.6 C-tail complex (Homo sapiens, UniProt Q9UQD0); test: Split-luciferase complementation assay (LCA), FGF13-1b:Nav1.6 C-tail complex; assay type: cell-based; conditions: LCA dose response, normalized to 0.5% DMSO; read-out: IC50, prevention of FGF13:Nav1.6 complex assembly
T5 construct: luciferase fragment (split-luciferase half); expressed in transfected cells
T5 sequence (Q9UQD0 1763-1980 limits assumed, one chain of several): as the sequence (Q9UQD0 1763-1980 limits assumed) above
From the text: In-cell reconstitution of FGF13: Nav1.6 complexes using the split-luciferase assay. […] B. Luminescence-based complementation assay (LCA) of the FGF13-1a:Nav1.6 (solid dots) and FGF13-1b:Nav1.6 C-tail complex (open dots); control conditions are depicted in black; corresponding dark red dots refer to LCA complexes in the presence of the tyrosine kinase inhibitor MNS used as negative control.

[13] = Plasma metabolic stability; assay type: in vitro ADME
Experimental: as §2

[14] = tested on: normal mechanical sensitivity; conditions: mouse, in vivo
Experimental: (§4) Schemes illustrate the experimental design testing the effect of local and intrathecal PW164 on normal mechanical sensitivity (left) and capsaicin-induced mechanical hypersensitivity (right), respectively. […] Drugs were given at the indicated concentrations in a final injected volume of 3 ul (A) or 5 ul (B); in panel B, drugs were injected 30 min after Cap injection.
(§5) In animals, hypersensitivity is manifested as increased withdrawals from von Frey filament stimulations of the injection site (FIG. 7).

[15] = tested on: normal mechanical sensitivity; test: Normal mechanical sensitivity, von Frey stimulation of normal skin; conditions: intraplantar injection, 3 ul
Experimental: as §4, §5

Normal mechanical sensation, paw withdrawal response to LVF and HVF [15] | Structure (SMILES) | Effect on full length luciferase [1] | Capsaicin-induced mechanical hypersensitivity ([2]; intrathecal, 5 ul, 30 min after capsaicin) | Duration of effect compared to bupivacaine ([2]; local injection at capsaicin site) | Mechanical hypersensitivity to LVF and HVF von Frey stimulation ([2]; local injection at capsaicin site, 30 min after capsaicin, 3 ul) | Oral bioavailability ([3]; intravenous 10 mg/kg) | Oral half-life [3] | Cytotoxicity (LDH) [4] | Human whole blood stability [5] | Availability of FGF13-1b:Nav1.6 channel pool ([6]; 50 μM, HEK-Nav1.6 cells expressing FGF13-1b-GFP) | Shift in V1/2 of steady-state inactivation ([6]; in the presence of FGF13-1b) | Mechanical hypersensitivity to LVF at surgical wound [7] | hERG liability [8] | Effect on FGF13-1A binding to Nav1.6 [9] | Effect on Na+ transient currents [10] | CYP450s liability [11] | IC50 [12] [µM] | Human plasma metabolic stability [13] | Normal mechanical sensation, paw withdrawal response to LVF and HVF [14]
– | COC(=O)[C@@H](NC(=O)[C@H](CCC(=O)OC(C)(C)C)NC(=O)[C@H](CC(C)C)NC(=O)[C@@H]1CCCN1C(=O)OCc1ccccc1)C(C)C [PW164, Benzyl(S)-2-(((S)-1-(((S)-5-(tert-butoxy)-1-(((S)-1-methoxy-3-methyl-1-oxobutan-2-yl)amino)-1,5-dioxopentan-2-yl)amino)-4-methyl-1-oxopentan-2-yl)carbamoyl) pyrrolidine-1-carboxylate] (Cbz-PLE(OtBu)V-OMe) | no effect | does not inhibit | longer-lasting effects without completely blocking mechanical sensation | dose-dependently inhibits mechanical hypersensitivity | moderate | moderate | not toxic | high | decreases availability | hyperpolarizing shift | inhibits the hypersensitivity | no hERG and CYP450s liabilities | does not have a significant effect | acts as a FGF13-1a mimic on transient Na+ currents | no hERG and CYP450s liabilities | 17.8 | high | no changes in paw withdrawal response
complete sensory block | CCCCN1CCCCC1C(=O)Nc1c(C)cccc1C (stereo not shown) [bupivacaine] | – | – | – | – | – | – | – | – | – | – | – | – | – | – | – | – | – | –
